Assay type in all cases: biochemical
One test concerns the target PI3K-α (Homo sapiens, UniProt P42336). Kind of test: PI3K-alpha fluorescence polarization assay. The note with it: 20 μM PIP2, 25 μM ATP. The procedure: (§1) The reaction buffer was 20 mM HEPES pH7.5, 2 mM MgCl2, 0.05% CHAPS, and 0.01% βME (added fresh). The substrate solution was 40 μM PIP2 (diC8, Echelon, Salt Lake City Utah cat #P-4508, 1 mM in water) and 50 μM ATP in the reaction buffer. Nunc 384-well black polypropylene fluorescent plates were used for PI3K assays. The assay is run by putting 9.5 μl of freshly diluted enzyme in the reaction buffer per well, adding 0.5 μl of diluted drug or DMSO, and mixing. Then 10 μl of the substrate solution is added to each well to start the reaction. A final concentration of 20 μM PIP2 and 25 μM ATP in the reaction was used. Reactions were allowed to proceed for 30-60 minutes at room temperature. After 30-60 minutes, 20 μl of a solution of 10 nM TAMRA detector (Red detector probe-Echelon) and 2.5 uM of GST-murineGRP (1.5 mg/ml in 17% glycerol) was added per well to stop the reaction. The resulting solution was mixed well and allowed to stand for 90-110 minutes before reading plate. Assay Plates were read on Perkin-Elmer Envision plate readers with appropriate filters for Tamra [BODIPY-TMRI(1,3,4,5)P4]. Data obtained were used to calculate enzymatic activity and enzyme inhibition by inhibitor compounds. It is important to keep Red probe solutions dark. This procedure is adapted from Echelon Biosciences Inc procedure for their PI3-Kinase fluorescence polarization activity Assay kit Product number K-1100.
In general terms: In fluorescence polarisation assays a small probe gives low polarisation when free and higher when bound to something large.

In another test the target is mTOR (Homo sapiens, UniProt P42345). Put plainly: mTOR enzyme assay (DELFIA, His6-S6K phosphorylation). Set-up: FLAG. The following applies: 100 μM ATP, 1.25 μM His6-S6K.
A further test has as its target PI3K-γ (Homo sapiens, UniProt P48736). Put plainly: PI3K-gamma fluorescence polarization assay. The following applies: 20 μM PIP2, 25 μM ATP. How it is done:
as §1

A further test has as its target PI3K-β (Homo sapiens, UniProt P42338). Kind of test: PI3K fluorescence polarization assay (PI3K-β). The procedure:
as §1

In the next test the target is PI3K-δ (Homo sapiens, UniProt O00329). Put plainly: PI3K fluorescence polarization assay (PI3K-δ). The procedure: as §1
Sequence of PI3K-δ (O00329 whole entry, species assumed): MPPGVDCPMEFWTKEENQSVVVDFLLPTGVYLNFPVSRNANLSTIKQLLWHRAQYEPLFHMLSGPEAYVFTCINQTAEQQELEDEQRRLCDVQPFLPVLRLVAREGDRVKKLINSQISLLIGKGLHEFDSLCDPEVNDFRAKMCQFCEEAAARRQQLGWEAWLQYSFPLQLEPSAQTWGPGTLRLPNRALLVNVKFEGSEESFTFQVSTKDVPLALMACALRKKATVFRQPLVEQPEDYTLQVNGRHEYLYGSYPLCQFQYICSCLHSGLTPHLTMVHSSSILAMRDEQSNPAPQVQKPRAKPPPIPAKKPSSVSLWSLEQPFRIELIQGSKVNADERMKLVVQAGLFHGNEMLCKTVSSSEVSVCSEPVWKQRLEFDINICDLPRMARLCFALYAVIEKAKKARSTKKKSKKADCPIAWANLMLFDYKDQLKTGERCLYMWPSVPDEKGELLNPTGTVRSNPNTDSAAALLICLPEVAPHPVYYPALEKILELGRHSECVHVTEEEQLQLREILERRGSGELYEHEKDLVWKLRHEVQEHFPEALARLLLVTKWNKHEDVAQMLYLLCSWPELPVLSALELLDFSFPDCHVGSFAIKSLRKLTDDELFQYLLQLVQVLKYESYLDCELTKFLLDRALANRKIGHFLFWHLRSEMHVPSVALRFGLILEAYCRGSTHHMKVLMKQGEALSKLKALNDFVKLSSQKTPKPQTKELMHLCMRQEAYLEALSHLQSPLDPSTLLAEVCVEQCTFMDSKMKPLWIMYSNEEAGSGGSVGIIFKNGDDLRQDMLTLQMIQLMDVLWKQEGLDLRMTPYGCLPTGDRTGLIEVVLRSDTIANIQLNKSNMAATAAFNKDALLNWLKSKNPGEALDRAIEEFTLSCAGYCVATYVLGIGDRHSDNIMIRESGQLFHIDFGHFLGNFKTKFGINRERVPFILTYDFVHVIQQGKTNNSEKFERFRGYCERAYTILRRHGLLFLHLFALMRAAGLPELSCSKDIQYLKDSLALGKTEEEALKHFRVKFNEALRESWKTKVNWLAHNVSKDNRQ
Sequence of PI3K-δ (P27986 whole entry partner, species assumed): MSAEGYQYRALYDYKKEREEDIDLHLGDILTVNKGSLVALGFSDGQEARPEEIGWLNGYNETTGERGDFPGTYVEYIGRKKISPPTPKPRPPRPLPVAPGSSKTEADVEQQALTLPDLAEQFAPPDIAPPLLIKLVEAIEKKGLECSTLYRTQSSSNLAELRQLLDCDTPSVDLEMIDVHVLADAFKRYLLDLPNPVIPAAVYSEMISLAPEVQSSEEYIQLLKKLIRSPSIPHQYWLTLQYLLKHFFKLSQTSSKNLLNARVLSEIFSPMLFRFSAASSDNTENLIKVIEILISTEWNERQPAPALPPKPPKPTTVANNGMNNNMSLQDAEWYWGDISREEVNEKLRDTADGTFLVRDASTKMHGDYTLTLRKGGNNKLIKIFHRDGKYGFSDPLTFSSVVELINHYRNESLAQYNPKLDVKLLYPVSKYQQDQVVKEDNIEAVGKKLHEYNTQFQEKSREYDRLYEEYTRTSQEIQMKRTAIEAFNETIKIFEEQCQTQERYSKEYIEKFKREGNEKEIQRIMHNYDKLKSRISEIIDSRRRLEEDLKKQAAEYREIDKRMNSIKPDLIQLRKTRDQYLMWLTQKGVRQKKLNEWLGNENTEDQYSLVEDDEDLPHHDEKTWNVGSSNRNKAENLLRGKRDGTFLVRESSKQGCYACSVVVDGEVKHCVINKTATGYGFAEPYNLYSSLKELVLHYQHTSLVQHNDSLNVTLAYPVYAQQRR

As a reminder, the IC50 is the midpoint of a concentration-inhibition curve.

Sequence of PI3K-γ (P48736 whole entry, species assumed): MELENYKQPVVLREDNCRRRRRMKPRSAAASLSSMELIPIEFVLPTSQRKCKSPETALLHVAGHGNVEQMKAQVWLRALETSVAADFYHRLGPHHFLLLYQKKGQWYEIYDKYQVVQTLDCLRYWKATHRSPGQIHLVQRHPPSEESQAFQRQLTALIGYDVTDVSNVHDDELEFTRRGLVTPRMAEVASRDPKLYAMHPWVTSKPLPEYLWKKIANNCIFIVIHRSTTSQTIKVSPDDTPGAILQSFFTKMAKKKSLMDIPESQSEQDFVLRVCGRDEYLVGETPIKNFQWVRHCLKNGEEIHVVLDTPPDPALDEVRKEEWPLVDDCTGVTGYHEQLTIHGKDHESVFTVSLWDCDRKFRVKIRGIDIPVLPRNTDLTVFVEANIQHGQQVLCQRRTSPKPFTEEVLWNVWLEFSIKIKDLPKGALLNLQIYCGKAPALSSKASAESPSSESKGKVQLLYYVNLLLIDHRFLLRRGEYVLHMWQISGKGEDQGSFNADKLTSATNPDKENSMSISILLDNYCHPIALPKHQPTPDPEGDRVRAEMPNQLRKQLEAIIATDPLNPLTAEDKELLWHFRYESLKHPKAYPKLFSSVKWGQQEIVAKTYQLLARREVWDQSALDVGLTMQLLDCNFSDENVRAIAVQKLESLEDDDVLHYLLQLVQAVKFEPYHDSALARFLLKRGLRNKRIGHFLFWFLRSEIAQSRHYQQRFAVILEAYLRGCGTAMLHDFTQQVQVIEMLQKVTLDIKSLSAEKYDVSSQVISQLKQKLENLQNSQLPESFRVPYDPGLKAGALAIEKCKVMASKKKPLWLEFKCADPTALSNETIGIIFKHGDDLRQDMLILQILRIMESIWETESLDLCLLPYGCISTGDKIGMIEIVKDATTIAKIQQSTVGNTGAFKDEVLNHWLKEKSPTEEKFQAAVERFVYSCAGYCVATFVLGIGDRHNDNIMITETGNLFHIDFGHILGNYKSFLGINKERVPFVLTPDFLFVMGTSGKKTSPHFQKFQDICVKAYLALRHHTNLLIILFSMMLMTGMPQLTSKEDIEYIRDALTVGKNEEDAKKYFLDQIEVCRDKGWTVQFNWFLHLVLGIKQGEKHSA
Sequence of PI3K-α (P42336 whole entry, species assumed): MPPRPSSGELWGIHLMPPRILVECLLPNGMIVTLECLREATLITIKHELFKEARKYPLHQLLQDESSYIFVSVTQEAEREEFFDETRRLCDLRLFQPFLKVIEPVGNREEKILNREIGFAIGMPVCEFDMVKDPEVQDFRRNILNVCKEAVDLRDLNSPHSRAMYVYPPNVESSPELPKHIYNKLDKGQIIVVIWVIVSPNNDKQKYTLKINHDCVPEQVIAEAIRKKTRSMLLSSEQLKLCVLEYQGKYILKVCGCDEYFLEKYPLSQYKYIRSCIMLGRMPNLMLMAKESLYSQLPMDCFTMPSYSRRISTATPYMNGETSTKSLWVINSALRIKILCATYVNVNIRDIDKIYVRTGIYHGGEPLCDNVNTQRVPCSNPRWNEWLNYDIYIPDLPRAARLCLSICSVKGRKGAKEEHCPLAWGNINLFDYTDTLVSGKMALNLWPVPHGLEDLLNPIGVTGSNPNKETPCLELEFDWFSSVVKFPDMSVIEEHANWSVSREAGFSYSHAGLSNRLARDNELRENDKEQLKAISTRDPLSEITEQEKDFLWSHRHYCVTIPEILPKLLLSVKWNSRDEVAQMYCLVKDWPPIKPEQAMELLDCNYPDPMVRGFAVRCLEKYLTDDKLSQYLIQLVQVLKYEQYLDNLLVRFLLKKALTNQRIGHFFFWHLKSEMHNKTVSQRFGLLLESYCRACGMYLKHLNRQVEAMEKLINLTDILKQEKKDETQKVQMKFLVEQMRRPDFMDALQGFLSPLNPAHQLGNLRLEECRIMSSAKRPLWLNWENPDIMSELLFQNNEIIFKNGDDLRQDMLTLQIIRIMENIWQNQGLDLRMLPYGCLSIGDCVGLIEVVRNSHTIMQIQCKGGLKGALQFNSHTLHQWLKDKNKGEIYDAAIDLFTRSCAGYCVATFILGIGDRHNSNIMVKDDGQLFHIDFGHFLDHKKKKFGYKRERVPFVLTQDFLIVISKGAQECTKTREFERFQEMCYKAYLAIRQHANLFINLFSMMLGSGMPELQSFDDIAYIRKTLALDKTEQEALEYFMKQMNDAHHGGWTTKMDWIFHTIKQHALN
Sequence of PI3K-α (P27986 whole entry partner, species assumed): as the sequence (P27986 whole entry partner, species assumed) above
Sequence of PI3K-β (P42338 whole entry, species assumed): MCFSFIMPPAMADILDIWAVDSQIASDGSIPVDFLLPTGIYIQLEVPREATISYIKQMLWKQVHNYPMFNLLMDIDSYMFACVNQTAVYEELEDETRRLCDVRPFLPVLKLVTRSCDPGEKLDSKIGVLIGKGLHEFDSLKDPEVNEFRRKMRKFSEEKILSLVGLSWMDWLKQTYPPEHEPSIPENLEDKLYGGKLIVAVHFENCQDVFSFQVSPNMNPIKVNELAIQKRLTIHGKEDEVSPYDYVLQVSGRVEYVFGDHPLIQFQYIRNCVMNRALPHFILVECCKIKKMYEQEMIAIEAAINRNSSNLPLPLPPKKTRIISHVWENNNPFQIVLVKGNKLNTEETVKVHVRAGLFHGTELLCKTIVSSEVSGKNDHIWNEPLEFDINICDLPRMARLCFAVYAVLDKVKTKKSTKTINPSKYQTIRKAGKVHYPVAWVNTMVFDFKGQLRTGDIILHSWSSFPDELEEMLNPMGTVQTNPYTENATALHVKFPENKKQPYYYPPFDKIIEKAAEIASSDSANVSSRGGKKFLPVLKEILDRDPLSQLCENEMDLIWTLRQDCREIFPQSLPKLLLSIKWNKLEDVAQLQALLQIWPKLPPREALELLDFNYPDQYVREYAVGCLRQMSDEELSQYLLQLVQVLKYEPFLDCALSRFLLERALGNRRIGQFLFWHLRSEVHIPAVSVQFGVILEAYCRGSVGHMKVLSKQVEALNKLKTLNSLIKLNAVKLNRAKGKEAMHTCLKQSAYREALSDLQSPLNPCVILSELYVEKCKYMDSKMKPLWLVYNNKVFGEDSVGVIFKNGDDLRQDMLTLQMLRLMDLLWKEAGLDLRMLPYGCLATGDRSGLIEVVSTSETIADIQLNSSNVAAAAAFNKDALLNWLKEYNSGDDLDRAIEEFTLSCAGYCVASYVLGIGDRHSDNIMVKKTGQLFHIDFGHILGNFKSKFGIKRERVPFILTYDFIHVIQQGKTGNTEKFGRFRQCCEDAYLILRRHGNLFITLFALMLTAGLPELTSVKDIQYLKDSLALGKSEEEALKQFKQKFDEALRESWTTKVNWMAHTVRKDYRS
Sequence of PI3K-β (P27986 whole entry partner, species assumed): as the sequence (P27986 whole entry partner, species assumed) above

As to `COc1ccc(Oc2nc(-c3ccc(OC)c(OC)c3)nc3c2cnn3C)cc1OC` [Example 46, 4-(3,4-dimethoxyphenoxy)-6-(3,4-dimethoxyphenyl)-1-methyl-1H-pyrazolo[3,4-d]pyrimidine], the concentration for half-maximal inhibition (IC50) at PI3K-α is 230 nM; at mTOR it was more than 20000 nM; at PI3K-γ, 203 nM; against PI3K-β, 428 nM; against PI3K-δ, 94 nM.

On to `Cn1ncc2c(Oc3ccc4[nH]ccc4c3)nc(-c3ccccc3)nc21` [Example 76, 4-(1H-indol-5-yloxy)-1-methyl-6-phenyl-1H-pyrazolo[3,4-d]pyrimidine], for which the IC50 on PI3K-α stood at 558 nM; at mTOR, 330 nM; against PI3K-γ, 570 nM.

Regarding `CNC(=O)Nc1ccc(-c2nc(Nc3ccc(C(N)=O)cc3)c3cnn(C)c3n2)cc1` [Example 77, 4-(1-methyl-6-(4-(3-methylureido)phenyl)-1H-pyrazolo[3,4-d]pyrimidin-4-ylamino)benzamide], the 50% inhibitory concentration (IC50) came out at 493 nM against PI3K-α, 1700 nM against mTOR and 2900 nM at PI3K-γ.

As for `CNC(=O)Nc1cccc(-c2nc(Nc3ccc(C(N)=O)cc3)c3cnn(C)c3n2)c1` [Example 78, 4-(1-methyl-6-(3-(3-methylureido)phenyl)-1H-pyrazolo[3,4-d]pyrimidin-4-ylamino)benzamide], the IC50 was 277 nM against PI3K-α, 775 nM at mTOR and 3600 nM against PI3K-γ.

As to `Cn1ncc2c(Nc3ccc(C(N)=O)cc3)nc(Nc3cccc(NC(=O)Nc4cccnc4)c3)nc21` [Example 80, 4-{[1-Methyl-6-({3-[(pyridin-3-ylcarbamoyl)amino]phenyl}amino)-1H-pyrazolo[3,4-d]pyrimidin-4-yl]amino}benzamide], the IC50 against PI3K-α amounted to 529 nM; at mTOR it was 3450 nM; at PI3K-γ, 2010 nM.

`CN1CCN(C(=O)c2ccc(NC(=O)Nc3ccc(Nc4nc(Nc5ccc(C(N)=O)cc5)c5cnn(C)c5n4)cc3)cc2)CC1` [Example 81, 4-{[1-Methyl-6-({4-[({4-[(4-methylpiperazin-1-yl)carbonyl]phenyl}carbamoyl)amino]phenyl}amino)-1H-pyrazolo[3,4-d]pyrimidin-4-yl]amino}benzamide]: the IC50 was 0.4 nM on PI3K-α, 17 nM on mTOR and 6 nM at PI3K-γ.

Turning to `CN(C)C1CCN(C(=O)c2ccc(NC(=O)Nc3ccc(Nc4nc(Nc5ccc(C(N)=O)cc5)c5cnn(C)c5n4)cc3)cc2)CC1` [Example 82, 4-({6-[(4-{[(4-{[4-(Dimethylamino)piperidin-1-yl]carbonyl}phenyl)carbamoyl]amino}phenyl)amino]-1-methyl-1H-pyrazolo[3,4-d]pyrimidin-4-yl}amino)benzamide], the IC50 at PI3K-α amounted to 0.2 nM; against mTOR it was 7 nM; against PI3K-γ it was 5 nM.

In the case of `CN(C)C1CCN(C(=O)c2ccc(NC(=O)Nc3ccc(Nc4nc(Nc5ccc(C(N)=O)cc5)c5cnn(C)c5n4)cc3)cc2)C1` (centres unmarked) [Example 83, 4-({6-[(4-{[(4-{[3-(Dimethylamino)pyrrolidin-1-yl]carbonyl}phenyl)carbamoyl]amino}phenyl)amino]-1-methyl-1H-pyrazolo[3,4-d]pyrimidin-4-yl}amino)benzamide], the IC50 against PI3K-α was found to be 0.3 nM; against mTOR, 5 nM; on PI3K-γ, 7 nM.

With `Cn1ncc2c(Nc3ccc(C(N)=O)cc3)nc(Nc3ccc(NC(=O)Nc4ccc(C(=O)N5CCOCC5)cc4)cc3)nc21` [Example 84, 4-[(1-Methyl-6-{[4-({[4-(morpholin-4-ylcarbonyl)phenyl]carbamoyl}amino)phenyl]amino}-1H-pyrazolo[3,4-d]pyrimidin-4-yl)amino]benzamide], the IC50 on PI3K-α amounted to 0.7 nM; on mTOR, 7 nM; against PI3K-γ it was 5 nM.

`CN(CCO)C(=O)c1ccc(NC(=O)Nc2ccc(Nc3nc(Nc4ccc(C(N)=O)cc4)c4cnn(C)c4n3)cc2)cc1` [Example 85, 4-({[4-({4-[(4-Carbamoylphenyl)amino]-1-methyl-1H-pyrazolo[3,4-d]pyrimidin-6-yl}amino)phenyl]carbamoyl}amino)-N-(2-hydroxyethyl)-N-methylbenzamide]: the 50% inhibitory concentration (IC50) was 0.4 nM against PI3K-α, 9 nM on mTOR and 11 nM at PI3K-γ.

Consider `CN(C)CCNC(=O)Nc1ccc(Nc2nc(Nc3ccc(C(N)=O)cc3)c3cnn(C)c3n2)cc1` [Example 86, 4-[(6-{[4-({[2-(Dimethylamino)ethyl]carbamoyl}amino)phenyl]amino}-1-methyl-1H-pyrazolo[3,4-d]pyrimidin-4-yl)amino]benzamide], for which the concentration for half-maximal inhibition (IC50) at PI3K-α was determined as 10 nM; on mTOR, 2200 nM; against PI3K-γ it was 143 nM.

As to `CC(C)N1CCN(C(=O)c2ccc(NC(=O)Nc3ccc(Nc4nc(Nc5ccc(C(N)=O)cc5)c5cnn(C)c5n4)cc3)cc2)CC1` [Example 87, 4-({1-Methyl-6-[(4-{[(4-{[4-(propan-2-yl)piperazin-1-yl]carbonyl}phenyl)carbamoyl]amino}phenyl)amino]-1H-pyrazolo[3,4-d]pyrimidin-4-yl}amino)benzamide], the results for the IC50 on PI3K-α, against mTOR and at PI3K-γ were 0.4 nM, 8 nM and 5 nM, respectively.

In the case of `Cn1ncc2c(Nc3ccc(C(N)=O)cc3)nc(Nc3ccc(NC(=O)NC4CC4)cc3)nc21` [Example 88, 4-{[6-({4-[(Cyclopropylcarbamoyl)amino]phenyl}amino)-1-methyl-1H-pyrazolo[3,4-d]pyrimidin-4-yl]amino}benzamide], the figures for the concentration for half-maximal inhibition (IC50) against PI3K-α, against mTOR and against PI3K-γ were 27 nM, 44 nM and 263 nM, respectively.

Take `CC(C)NC(=O)Nc1ccc(Nc2nc(Nc3ccc(C(N)=O)cc3)c3cnn(C)c3n2)cc1` [Example 89, 4-{[1-Methyl-6-({4-[(propan-2-ylcarbamoyl)amino]phenyl}amino)-1H-pyrazolo[3,4-d]pyrimidin-4-yl]amino}benzamide]: the IC50 at PI3K-α amounted to 124 nM; against mTOR, 70 nM; on PI3K-γ it was 523 nM.

In the case of `CNC(=O)c1ccc(Nc2nc(Nc3ccc(NC(=O)Nc4cccnc4)cc3)nc3c2cnn3C)cc1` [Example 90, N-Methyl-4-{[1-methyl-6-({4-[(pyridin-3-ylcarbamoyl)amino]phenyl}amino)-1H-pyrazolo[3,4-d]pyrimidin-4-yl]amino}benzamide], the IC50 at PI3K-α was determined as 2.5 nM; against mTOR it was 12 nM; against PI3K-γ, 75 nM.

For the compound `CN1CCC(NC(=O)Nc2ccc(Nc3nc(Nc4ccc(C(N)=O)cc4)c4cnn(C)c4n3)cc2)CC1` [Example 91, 4-({1-Methyl-6-[(4-{[(1-methylpiperidin-4-yl)carbamoyl]amino}phenyl)amino]-1H-pyrazolo[3,4-d]pyrimidin-4-yl}amino)benzamide], the 50% inhibitory concentration (IC50) was 198 nM against PI3K-α, 2000 nM against mTOR and 3170 nM against PI3K-γ.

`CN(C)CCN(C)C(=O)c1ccc(NC(=O)Nc2ccc(Nc3nc(Nc4ccc(C(N)=O)cc4)c4cnn(C)c4n3)cc2)cc1` [Example 92, 4-({[4-({4-[(4-Carbamoylphenyl)amino]-1-methyl-1H-pyrazolo[3,4-d]pyrimidin-6-yl}amino)phenyl]carbamoyl}amino)-N-[2-(dimethylamino)ethyl]-N-methylbenzamide]: the IC50 at PI3K-α was less than 0.3 nM; against mTOR, 9 nM; against PI3K-γ, 6 nM.

For the compound `CN(C)C(=O)c1ccc(Nc2nc(Nc3ccc(NC(=O)Nc4cccnc4)cc3)nc3c2cnn3C)cc1` [Example 93, N,N-Dimethyl-4-{[1-methyl-6-({4-[(pyridin-3-ylcarbamoyl)amino]phenyl}amino)-1H-pyrazolo[3,4-d]pyrimidin-4-yl]amino}benzamide], the 50% inhibitory concentration (IC50) on PI3K-α turned out to be 2.1 nM; at mTOR it was 12 nM; against PI3K-γ it was 75 nM.

On to `Cn1ncc2c(Nc3ccc4c(c3)CNC4=O)nc(Nc3ccc(NC(=O)Nc4cccnc4)cc3)nc21` [Example 94, 1-[4-({1-Methyl-4-[(1-oxo-2,3-dihydro-1H-isoindol-5-yl)amino]-1H-pyrazolo[3,4-d]pyrimidin-6-yl}amino)phenyl]-3-pyridin-3-ylurea], for which the concentration for half-maximal inhibition (IC50) worked out at 1.6 nM against PI3K-α, 20 nM on mTOR and 11 nM on PI3K-γ.

In the case of `CN1Cc2cc(Nc3nc(Nc4ccc(NC(=O)Nc5cccnc5)cc4)nc4c3cnn4C)ccc2C1=O` [Example 95, 1-[4-({1-Methyl-4-[(2-methyl-1-oxo-2,3-dihydro-1H-isoindol-5-yl)amino]-1H-pyrazolo[3,4-d]pyrimidin-6-yl}amino)phenyl]-3-pyridin-3-ylurea], the figures for the IC50 on PI3K-α, against mTOR and at PI3K-γ were 6 nM, 68 nM and 148 nM, respectively.
